In publication PMC4685510, “A Cell Biologist’s Field Guide to Aurora Kinase Inhibitors” (Frontiers in Oncology, 2015):
“Also recorded” adds a separate entry of the source. Where two headings read alike, the source gives them in different places.

Tests used:
[1] = test system: pH3(Ser 28) in RPE1 cells; experiment: Substrate phosphorylation immunofluorescence assay, pH3(Ser 28), RPE1; type: cell-based, human; conditions: Homo sapiens, read-out: pHistone H3 (Ser28) IC50
[2] = test system: pH3(Ser 28) in U2OS cells; experiment: Substrate phosphorylation immunofluorescence assay, pH3(Ser 28), U2OS; type: cell-based, human; conditions: Homo sapiens, read-out: pHistone H3 (Ser28) IC50
[3] = test system: pLATS2(Ser 83) in RPE1 cells; experiment: Substrate phosphorylation immunofluorescence assay, pLATS2(Ser 83), RPE1; type: cell-based, human; conditions: RPE1, 8 h inhibitor treatment; for IC50: Homo sapiens, RPE-1, read-out: pLATS2 (Ser83) IC50
Procedure: (§1) We employed the protocol described in Figure 3D to analyze substrate phosphorylation in HeLa cells following treatment with all 10 inhibitors in dose–response. Asynchronous cells were incubated with vehicle (DMSO) or different inhibitor doses for 8 h and then fixed and labeled with a mixture of three antibodies directed against pLATS2(Ser 83), pH3(Ser 28), and MPM2 [which detects mitotic phosphoepitopes; ([86])]. While both the anti-pLATS2(Ser 83) and MPM2 antibodies are mouse monoclonals, they are of different IgG subclasses [IgG2b for anti-pLATS2(Ser 83) and IgG1 for MPM2], and can thus be detected with subclass-specific secondary antibodies (Table S3 in Supplementary Material).
(§2) In control mitotic cells, pLATS2(Ser 83) is concentrated in foci around the spindle poles (Figure 3E; top row – green arrow) and pH3(Ser 28) is on the mitotic chromatin (Figure 3E; top row – red arrow). Selective kinase inhibition should result in loss of one signal but not the other, as illustrated by the example images for specific conditions in Figure 3E (middle and bottom rows). Cells were imaged in 4 channels to visualize pLATS2(Ser 83), pH3(Ser 28), MPM2, and DNA (labeled with Hoechst) and mitotic cells were segmented based on their bright MPM2 labeling (Figure 3E). Intensity and area thresholds were set to select the pLATS2(Ser 83) foci and the pH3(Ser 28)-labeled chromatin in their respective channels in DMSO-treated control cells and the same thresholds were applied for inhibitor-treated cells. The mean fluorescence intensity per pixel was measured to assess the activities of the kinases targeting these two substrate phosphorylation sites.
(§3) Twelve thousand HeLa cells, 10,000 U2OS cells, or 8,000 RPE1 cells were seeded into 96-well glass-bottom Sensoplates (Greiner) 16 h before inhibitor addition. Prior to seeding, the glass-bottom plates were coated with poly-L-lysine (Sigma). […] After 8 h cells were fixed with 4% PFA for 20 min at room temperature. The fixed cells were washed with PBS. For immunostaining, cells were permeabilized and blocked with PBS containing 10% normal donkey serum (Jackson ImmunoResearch) and 0.1% Triton-X100 for 1 h at room temperature. Primary antibodies against phospho-LATS2 (Ser 83), phospho-histone H3(Ser 28), and anti-phospho-MPM2 (see Table S3 in Supplementary Material) were incubated for 1 h at room temperature. […] Cells were then washed twice with PBS containing 0.1% Triton-X100. Image acquisition in four channels was performed using a CV7000 spinning disk confocal system (Yokogawa Electric Corporation) with a 40 × 0.95 NA U-PlanApo objective and 2560 × 2160 pixel sCMOS camera. […] Fifty fields per well were imaged with quadruplicate wells for each condition. Image analysis was done using the CV7000 image analysis software (Yokogawa Electric Corporation). Between 100 and 1,000 mitotic cells per condition were segmented applying object identification parameters to select for bright MPM2 labeling. Using a nuclear identifier protocol, minimum intensity thresholds were set for pLATS2(Ser 83) and the pH3(Ser 28) signals, and the resulting identified objects were eroded, dilated, and filtered for size by user-defined thresholds. For only the MPM2-positive mitotic cells, the mean fluorescence intensity of the identified pLATS2(Ser 83) and pH3(Ser 28) objects was measured, and the average intensity per cell per well was calculated. The same thresholds were applied for all of the inhibitor-treated samples, which were processed, imaged, and analyzed in parallel with control DMSO-treated cells. Data were fit using a four-parameter, variable slope fit in Prism (GraphPad). Primary and secondary antibody dilutions can be found in Table S3 in Supplementary Material.

Aurora A-TPX2 = conditions: cited from earlier work; for IC50: ref 121, read-out: Aurora A-TPX2 IC50 (Published)
Aurora A = conditions: read-out: Aurora A IC50 (Published), cited from earlier work
[4] = test system: pLATS2(Ser 83) in U2OS cells; experiment: Substrate phosphorylation immunofluorescence assay, pLATS2(Ser 83), U2OS; type: cell-based, human; conditions: 8 h inhibitor treatment; for IC50: Homo sapiens, read-out: pLATS2 (Ser83) IC50
Procedure: as §1, §2, §3

RPE1 cells [5] = experiment: G2 duration live imaging assay (GFP-PCNA; H2B-RFP), RPE1; type: cell-based; conditions: Homo sapiens, RPE-1; RPE1; read-out: G2/M (G2 duration) IC50
[6] = test system: pH3(Ser 28) in HeLa cells; experiment: Substrate phosphorylation immunofluorescence assay, pH3(Ser 28), HeLa; type: cell-based, human; conditions: for IC50: Homo sapiens, 8 h, read-out: pHistone H3 (Ser28) IC50
U2OS cells [7] = experiment: G2 duration live imaging assay (GFP-PCNA; H2B-RFP), U2OS; type: cell-based; conditions: Homo sapiens, read-out: G2/M (G2 duration) IC50
[8] = test system: pLATS2(Ser 83) in HeLa cells; experiment: Substrate phosphorylation immunofluorescence assay, pLATS2(Ser 83), HeLa; type: cell-based, human; conditions: HeLa; for IC50: Homo sapiens, 8 h, read-out: pLATS2 (Ser83) IC50; for IC50 / pLATS2 (Ser83) IC50: 8 h inhibitor treatment
Procedure: as §1, §2, §3

HeLa cells [9] = experiment: G2 duration live imaging assay (GFP-PCNA; H2B-RFP), HeLa; type: cell-based, human; conditions: Homo sapiens, read-out: G2/M (G2 duration) IC50
HeLa cells [10] = experiment: Cytokinesis assay (live imaging, YFP-α-tubulin; H2B-RFP), HeLa; type: cell-based, human; conditions: for IC50: Homo sapiens, HeLa, read-out: Cytokinesis IC50
U2OS cells [11] = experiment: Cytokinesis assay (live imaging, YFP-α-tubulin; H2B-RFP), U2OS; type: cell-based; conditions: Homo sapiens, read-out: Cytokinesis IC50
RPE1 cells [12] = experiment: Cytokinesis assay (live imaging, YFP-α-tubulin; H2B-RFP), RPE1; type: cell-based; conditions: Homo sapiens
Aurora B = conditions: read-out: Aurora B IC50 (Published), cited from earlier work
Aurora B/INCENP^783–918 = target: T1, Aurora B/INCENP^783–918 (Homo sapiens, UniProt Q96GD4); experiment: Aurora B/INCENP^783–918 kinase assay (ADP-Glo); type: biochemical
T1 construct: purchased SignalChem
T1 sequence (Q96GD4 whole entry): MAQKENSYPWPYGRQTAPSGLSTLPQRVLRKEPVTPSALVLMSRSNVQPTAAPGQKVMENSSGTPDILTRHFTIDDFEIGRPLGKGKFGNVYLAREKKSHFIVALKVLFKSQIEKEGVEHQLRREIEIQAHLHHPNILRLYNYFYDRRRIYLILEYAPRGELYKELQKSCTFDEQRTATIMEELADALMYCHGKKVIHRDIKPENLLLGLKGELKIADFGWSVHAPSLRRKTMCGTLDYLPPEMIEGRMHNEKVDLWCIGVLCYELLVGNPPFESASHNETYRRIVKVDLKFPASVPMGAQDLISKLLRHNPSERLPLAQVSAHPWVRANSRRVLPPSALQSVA
T1 sequence (Q9NQS7 783-918 partner limits assumed): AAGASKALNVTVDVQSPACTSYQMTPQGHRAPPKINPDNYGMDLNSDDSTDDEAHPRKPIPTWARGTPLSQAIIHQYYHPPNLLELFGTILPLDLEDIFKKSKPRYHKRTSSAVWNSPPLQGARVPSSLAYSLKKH

Aurora A/TPX2^1–43 = target: T2, Aurora A/TPX2^1–43 (Homo sapiens, UniProt O14965); experiment: Aurora A/TPX2^1–43 kinase assay (ADP-Glo); conditions: Aurora A-TPX2^1–43 Ki Mean ± SD, [ATP] = Km(ATP) (3 μM); 40 nM TPX2^1–43
T2 sequence (O14965 1-403): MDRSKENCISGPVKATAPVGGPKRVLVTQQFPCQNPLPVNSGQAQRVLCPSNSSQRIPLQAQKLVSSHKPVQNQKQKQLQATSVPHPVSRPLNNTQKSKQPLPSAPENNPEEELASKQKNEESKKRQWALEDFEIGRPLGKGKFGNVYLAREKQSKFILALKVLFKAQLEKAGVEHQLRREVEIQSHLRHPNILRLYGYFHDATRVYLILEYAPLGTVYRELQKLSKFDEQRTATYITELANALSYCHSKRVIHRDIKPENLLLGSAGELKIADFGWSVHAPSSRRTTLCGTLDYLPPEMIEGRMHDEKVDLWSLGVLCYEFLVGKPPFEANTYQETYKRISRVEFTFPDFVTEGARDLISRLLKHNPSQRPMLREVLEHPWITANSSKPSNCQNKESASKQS
T2 sequence (Q9ULW0 1-43 partner limits assumed): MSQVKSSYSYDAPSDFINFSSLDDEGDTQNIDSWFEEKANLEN

[13] = target: T3, full-length human Aurora A (Homo sapiens, UniProt O14965); experiment: Aurora A kinase assay (ADP-Glo, Kemptide substrate); conditions: Aurora A Ki Mean ± SD, [ATP] = Km(ATP) (35 μM); Ki calculated from IC50 with tight-binding equation
T3 sequence (O14965 1-403): T2 sequence (O14965 1-403)

[14] = test system: pAuroraB(Thr 232), pH3(Ser 10), pH3(Ser 28) in HeLa cells; experiment: Immunoblotting of pAuroraB(Thr 232), pH3(Ser 28) and pH3(Ser 10); type: cell-based, human; conditions: immunoblot, dose–response
[15] = target: 363 human kinases (including Aurora A/B/C) (Homo sapiens, UniProt Q16539); experiment: biochemical; type: biochemical; conditions: read-out: % Enzyme Activity (relative to DMSO controls)
Chain of 363 human kinases (including Aurora A/B/C) (Homo sapiens, UniProt Q16539) (Q16539 whole entry): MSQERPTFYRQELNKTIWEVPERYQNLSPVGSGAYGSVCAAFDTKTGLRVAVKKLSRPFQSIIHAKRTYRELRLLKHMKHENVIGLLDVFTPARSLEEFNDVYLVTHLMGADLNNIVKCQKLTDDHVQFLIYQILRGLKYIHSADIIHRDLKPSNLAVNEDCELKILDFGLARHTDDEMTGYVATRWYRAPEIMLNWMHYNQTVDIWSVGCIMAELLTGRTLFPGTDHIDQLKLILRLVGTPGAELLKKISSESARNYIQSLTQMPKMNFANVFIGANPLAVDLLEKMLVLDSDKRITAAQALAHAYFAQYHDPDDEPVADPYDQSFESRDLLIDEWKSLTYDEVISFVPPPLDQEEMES

[16] = test system: 363 human kinases (including Aurora A/B/C); experiment: biochemical; type: biochemical
[17] = test system: HeLa, RPE1, and U2OS cells; experiment: Cellular proliferation analysis (ATPLite, 24 h); conditions: HeLa, RPE1, U2OS; 24 h (Figure 4D, Figure S2B)
[18] = test system: pAuroraA(Thr 288) in HeLa cells; experiment: Immunoblotting of Aurora A activation loop phosphorylation; type: cell-based, human; conditions: immunoblot
[19] = RPE-1, RPE1, 8 h inhibitor treatment
[20] = RPE-1, RPE1, cytokinesis failure, read-out: Cytokinesis IC50
[21] = fold difference in potency calculated by dividing Ki values, for GSK1070916 the Aurora B Ki of ref 61 was used

SMILES	IC50 [1, 19] [nM]	IC50 ([2]; 8 h inhibitor treatment) [nM]	IC50 [3] [nM]	IC50 [4] [nM]	IC50 (RPE1 cells [5]) [nM]	IC50 ([6]; 8 h inhibitor treatment) [nM]	IC50 (U2OS cells [7]) [nM]	Specificity window (pLATS2(Ser 83) versus pH3(Ser 28)) [8] [fold]	IC50 [8] [nM]	IC50 (HeLa cells [9]) [nM]	IC50 (HeLa cells [10]; cytokinesis failure) [nM]	IC50 (Aurora A-TPX2) [nM]	IC50 (U2OS cells [11]; cytokinesis failure) [nM]	pLATS2 (Ser83) IC50 [8]	IC50 (RPE1 cells [12]; [20]) [nM]	Concentration completely eliminating pH3(Ser 28) labeling without affecting pLATS2(Ser 83) labeling [6] [nM]	other results
O=C(O)c1ccc(Nc2ncc3c(n2)-c2ccc(Cl)cc2C(c2c(F)cccc2F)=NC3)cc1 [MLN8054]	880	3300	720	800	500	2900	957	[…]	290	736	–	–	–	–	–	–	Ki (Aurora A-TPX2; ref 71, read-out: Aurora A-TPX2 Ki (Published)): 3.3 nM; IC50 (Aurora A; ref 48): […]; IC50 (Aurora A; ref 59): […]
COc1cc2c(Nc3ccc(NC(=O)c4ccccc4)cc3)ncnc2cc1OCCCN1CCOCC1 [ZM447439]	–	–	–	–	–	410	–	–	–	–	615	360	613	NE (3 μM); also recorded: NE@3 μM	1320	–	–
CCS(=O)(=O)Nc1ccc2c(c1)/C(=C(/Nc1ccc(CN3CCCCC3)cc1)c1ccccc1)C(=O)N2 [Hesperadin]	–	–	–	–	–	14	–	–	–	–	14	11	17	NE (100 nM); also recorded: NE@100 nM	47	< 100	Stability under long-term live imaging conditions (HeLa cells [10]; ability to block cytokesis over time in live imaging, cell line not specified): appeared to be unstable under live imaging conditions; also recorded: appears to be unstable under long-term live imaging conditions; IC50 (Aurora B; ref 45): 250 nM; IC50 (Aurora B; ref 121): 3 nM; Ki (Aurora B/INCENP^783–918; Aurora B-INCENP^783–918 Ki Mean ± SD, [ATP] = Km(ATP) (10 μM)): 0.03 ± 0.014 nM; Selectivity ratio Aur B-INCENP^783–918 versus Aur A (Aurora B/INCENP^783–918; [21]): 40.2 fold; Selectivity ratio Aur B-INCENP^783–918 versus Aur A-TPX2^1–43 (Aurora B/INCENP^783–918; [21]): 45.3 fold; Ki (Aurora A/TPX2^1–43): 1.37 ± 0.12 nM; Ki [13]: 1.21 ± 0.14 nM
Cc1cc(Nc2cc(N3CCN(C)CC3)nc(Sc3ccc(NC(=O)C4CC4)cc3)n2)[nH]n1 [VX-680]	–	–	–	–	–	45	–	–	150	–	–	–	–	–	–	–	IC50 (Aurora A; ref 119): […]
COc1cc(Nc2ncc3c(n2)-c2ccc(Cl)cc2C(c2c(F)cccc2OC)=NC3)ccc1C(=O)O [MLN8237]	130	210	130	92	115	160	157	4	37	128	–	–	–	–	–	–	–
CCN(CCO)CCCOc1ccc2c(Nc3cc(CC(=O)Nc4cccc(F)c4)[nH]n3)ncnc2c1 [AZD1152-HQPA]	–	–	–	–	–	–	–	–	–	–	–	–	–	NE (100 nM); also recorded: NE@100 nM	–	< 100	Effect on pH3(Ser 10), pH3(Ser 28), pAuroraB(Thr 232) [14]: eliminated; IC50 (HeLa cells [10]): 4 nM; IC50 ([1]; RPE-1, 8 h): 25 nM; remaining activity at 0.1 µM [15]: 104%; Kinases inhibited ≥65% of control [16]: Aurora B was the only enzyme; IC50 ([2]; 8 h): 12 nM; pLATS2 (Ser83) IC50 [3]: NE@200 nM; Toxicity / cytotoxicity (cellular proliferation) [17]: not observed; IC50 (U2OS cells [11]): 20 nM; pLATS2 (Ser83) IC50 [4]: NE@200 nM; Effect on Aurora A activity (pAuroraA Thr 288) ([18]; 300 nM (Figure S6)): did not; Effect on pAuroraA(Thr 288) ([18]; dose–response): did not affect; IC50 [6]: 5 nM; IC50 (RPE1 cells [12]; RPE-1, read-out: Cytokinesis IC50): 23 nM
